Laboratory results from EP0485111A2, “The use of lipoxygenase and cyclooxygenase inhibitors as synergistic agents” (ZENECA LIMITED, priority 1990, dated 1992).

Tested on: arachidonic acid induced inflammatory response
Assay: arachidonic acid induced mouse ear inflammatory oedema test (mouse ear inflammatory model), oral dosing
Type: in vivo
Settings: for inhibition in vivo at 3 mg/kg / inhibition in vivo at 30 mg/kg / inhibition in vivo at 10 mg/kg / inhibition in vivo at 1 mg/kg: Mus musculus, po; for inhibition (anti-inflammatory effect of the CO inhibitors): CO inhibitor alone at 1-10 mg/kg orally
Method: According to the test method, groups of 10 mice (25-30 g each) were dosed orally with vehicle alone (a mixture of 0.5% hydroxypropylmethylcellulose, 0.1% polysorbate 80 and water), with the 5-LO inhibitor alone, with a CO-inhibitor alone, or with a combination of 5-LO and CO inhibitors. After a period of 1 hour arachidonic acid (1 mg in 10 microlitres of acetone) was applied topically to one ear of each mouse. After a further period of 1 hour the mice were killed and a disc-shaped portion (6 mm in diameter) was punched from each ear. Comparison of the weights of the ear-discs between the arachidonic acid treated and untreated ears allows the effect of each treatment to be determined. The effect of each test compound or combination of compounds is calculated as follows ('ear weight diff.' means the mean difference in the weights of the disc-shaped portions of ear punched from the arachidonic acid-treated ear compared to the untreated ear for each mouse):- [table]

[1] = summary of Examples 1 to 10, variable

Compound: O=C(O)Cc1ccccc1Nc1c(Cl)cccc1Cl [D, diclofenac, reference compound]
- inhibition in vivo at 3 mg/kg (Ex 8, D 3 mg/kg orally alone): 11.1%
- inhibition in vivo at 30 mg/kg (Ex 8, D 30 mg/kg orally alone): 11.4%
- inhibition in vivo at 3 mg/kg (Ex 9, D 3 mg/kg orally alone): 5.9%
- inhibition in vivo at 10 mg/kg (Ex 9, D 10 mg/kg orally alone): 4.9%
- inhibition in vivo at 30 mg/kg (Ex 9, D 30 mg/kg orally alone): 17.8%
- inhibition in vivo at 10 mg/kg (Ex 10, D 10 mg/kg orally alone): 7.4%
- inhibition in vivo at 30 mg/kg (Ex 10, D 30 mg/kg orally alone): 10.5%
- inhibition (anti-inflammatory effect of the CO inhibitors) [1]: 0 to 55%

Compound: COC1(c2cc(F)cc(Sc3ccc4c(c3)OCC(=O)N4C)c2)CCOCC1 [[2], 4-[5-fluoro-3-(4-methyl-3-oxo-2,3-dihydro-4H-1,4-benzoxazin-7-ylthio)phenyl]-4-methoxytetrahydropyran]
- inhibition in vivo at 3 mg/kg (Ex 11, [2] 3 mg/kg orally alone): 15%
- inhibition in vivo at 10 mg/kg (Ex 11, [2] 10 mg/kg orally alone): 22%
- inhibition in vivo at 30 mg/kg (Ex 11, [2] 30 mg/kg orally alone): 34%
- inhibition in vivo at 30 mg/kg (Ex 12, [2] 30 mg/kg orally alone (I 0 mg/kg)): 27%

Compound: COC1(c2ccc(Sc3ccc4c(c3)CCC(=O)N4C)s2)CCOCC1 [[3], 4-methoxy-4-[5-(1-methyl-2-oxo-1,2,3,4-tetrahydroquinolin-6-ylthio)thien-2-yl]tetrahydropyran]
- inhibition in vivo at 3 mg/kg (Ex 13, [3] 3 mg/kg orally alone, asterisk (*): not statistically significant): 17%
- inhibition in vivo at 10 mg/kg (Ex 13, [3] 10 mg/kg orally alone): 15%
- inhibition in vivo at 30 mg/kg (Ex 13, [3] 30 mg/kg orally alone, asterisk (*): not statistically significant): 20%

Compound: COC1(c2cc(F)cc(Sc3ccc4c(c3)CCC(=O)N4C)c2)CCOCC1 [[4], 4-[5-fluoro-3-(1-methyl-2-oxo-1,2,3,4-tetrahydroquinolin-6-ylthio)phenyl]-4-methoxytetrahydropyran]
- inhibition in vivo at 3 mg/kg (Ex 14, [4] 3 mg/kg orally alone, asterisk (*): not statistically significant): 5%
- inhibition in vivo at 10 mg/kg (Ex 14, [4] 10 mg/kg orally alone): 21%
- inhibition in vivo at 30 mg/kg (Ex 14, [4] 30 mg/kg orally alone): 22%

Compound: COc1ccc2c(c1)c(CC(=O)O)c(C)n2C(=O)c1ccc(Cl)cc1 [I, indomethacin, reference compound]
- inhibition in vivo at 10 mg/kg (Ex 1, I 10 mg/kg orally alone ([1] 0 mg/kg)): 16.9%
- inhibition in vivo at 10 mg/kg (Ex 2, I 10 mg/kg orally alone ([1] 0 mg/kg)): 27.4%
- inhibition in vivo at 3 mg/kg (Ex 3, I 3 mg/kg orally alone ([1] 0 mg/kg)): 12.8%
- inhibition in vivo at 3 mg/kg (Ex 4, I 3 mg/kg orally alone): 15.3%
- inhibition in vivo at 10 mg/kg (Ex 4, I 10 mg/kg orally alone): 55.3%
- inhibition in vivo at 3 mg/kg (Ex 5, I 3 mg/kg orally alone): 18.2%
- inhibition in vivo at 10 mg/kg (Ex 5, I 10 mg/kg orally alone): 55.6%
- inhibition in vivo at 10 mg/kg (Ex 11, I 10 mg/kg orally alone ([2] 0 mg/kg)): 30%
- inhibition in vivo at 1 mg/kg (Ex 12, I 1 mg/kg orally alone): 13%
- inhibition in vivo at 3 mg/kg (Ex 12, I 3 mg/kg orally alone): 27%
- inhibition in vivo at 10 mg/kg (Ex 12, I 10 mg/kg orally alone): 33%
- inhibition in vivo at 10 mg/kg (Ex 13, I 10 mg/kg orally alone ([3] 0 mg/kg), asterisk (*): not statistically significant): 10%
- inhibition in vivo at 10 mg/kg (Ex 14, I 10 mg/kg orally alone ([4] 0 mg/kg), asterisk (*): not statistically significant): -2.5%
- inhibition in vivo at 10 mg/kg (Ex 15, I 10 mg/kg orally alone ([5] 0 mg/kg)): 27%
- inhibition (anti-inflammatory effect of the CO inhibitors) [1]: 0 to 55%

Compound: CC(C(=O)O)c1ccc(-c2ccccc2)c(F)c1 (stereo not shown) [F, flurbiprofen, reference compound]
- inhibition in vivo at 3 mg/kg (Ex 6, F 3 mg/kg orally alone ([1] 0 mg/kg)): 14.6%
- inhibition in vivo at 3 mg/kg (Ex 7, F 3 mg/kg orally alone ([1] 0 mg/kg)): 7.6%
- inhibition (anti-inflammatory effect of the CO inhibitors) [1]: 0 to 55%

Compound: COC1(c2cc(F)cc(OCc3ccc4c(ccc(=O)n4C)c3)c2)CCOCC1 [[1], 6-[(3-fluoro-5-[4-methoxy-3,4,5,6-tetrahydro-2H-pyran-4-yl]phenoxy)methyl]-1-methyl-2-quinolone]
- inhibition in vivo at 1 mg/kg (Ex 1, [1] 1 mg/kg orally alone): 14.6%
- inhibition in vivo at 3 mg/kg (Ex 1, [1] 3 mg/kg orally alone): 19.1%
- inhibition in vivo at 10 mg/kg (Ex 1, [1] 10 mg/kg orally alone): 47.2%
- inhibition in vivo at 3 mg/kg (Ex 2, [1] 3 mg/kg orally alone): 9.5%
- inhibition in vivo at 10 mg/kg (Ex 2, [1] 10 mg/kg orally alone): 0.5%
- inhibition in vivo at 3 mg/kg (Ex 3, [1] 3 mg/kg orally alone): 0%
- inhibition in vivo at 10 mg/kg (Ex 3, [1] 10 mg/kg orally alone): 15.6%
- inhibition in vivo at 10 mg/kg (Ex 4, [1] 10 mg/kg orally alone (I 0 mg/kg)): 44.4%
- inhibition in vivo at 10 mg/kg (Ex 5, [1] 10 mg/kg orally alone (I 0 mg/kg)): 15.2%
- inhibition in vivo at 1 mg/kg (Ex 6, [1] 1 mg/kg orally alone): 16.7%
- inhibition in vivo at 3 mg/kg (Ex 6, [1] 3 mg/kg orally alone): 20.8%
- inhibition in vivo at 10 mg/kg (Ex 6, [1] 10 mg/kg orally alone): 15.6%
- inhibition in vivo at 1 mg/kg (Ex 7, [1] 1 mg/kg orally alone): 16.2%
- inhibition in vivo at 3 mg/kg (Ex 7, [1] 3 mg/kg orally alone): 13.3%
- inhibition in vivo at 10 mg/kg (Ex 7, [1] 10 mg/kg orally alone): 11.4%
- inhibition in vivo at 10 mg/kg (Ex 8, [1] 10 mg/kg orally alone (D 0 mg/kg)): 12.5%
- inhibition in vivo at 10 mg/kg (Ex 9, [1] 10 mg/kg orally alone (D 0 mg/kg)): 25.7%
- inhibition in vivo at 10 mg/kg (Ex 10, [1] 10 mg/kg orally alone (D 0 mg/kg)): 3.2%
- inhibition (anti-inflammatory effect of the 5-LO inhibitor) (summary of Examples 1 to 10, 5-LO inhibitor alone at 1-10 mg/kg orally, variable): 0 to 47%

Compound: COC1(c2cc(F)cc(Sc3ccc(C(F)(F)c4ccc(F)cc4)cc3)c2)CCOCC1 [[5], 4-[5-fluoro-3-(4-(4-fluoro-alpha,alpha-difluorobenzyl)phenylthio)phenyl]-4-methoxytetrahydropyran]
- inhibition in vivo at 3 mg/kg (Ex 15, [5] 3 mg/kg orally alone, asterisk (*): not statistically significant): 11%
- inhibition in vivo at 10 mg/kg (Ex 15, [5] 10 mg/kg orally alone, asterisk (*): not statistically significant): 16%
- inhibition in vivo at 30 mg/kg (Ex 15, [5] 30 mg/kg orally alone, asterisk (*): not statistically significant): 17%
